Test: Safety and tolerability (adverse events, CTCAE v5.0; full analysis set)
Type: in vivo, human
Protocol: Safety and tolerability were evaluated in terms of AEs, which were classified and graded according to the National Cancer Institute (NCI) Common Terminology Criteria for Adverse Events (CTCAE) v5.0; vital signs; 12-lead electrocardiogram (ECG); and clinical laboratory assessments, including clinical chemistry and hematology parameters, urinalysis, HbA1c levels, and lipid profiles.
Efficacy analyses were also performed on the full analysis set. Summary and/or descriptive statistics were used to analyze baseline demographic, safety, and efficacy data; PFS and DoR were estimated using Kaplan–Meier methodology.

[1] = part B period 4, capivasertib only 400 mg BID, N=19
[2] = period 2, days 2–7 cycle 1, capivasertib only 400 mg BID, N=21
[3] = total, all treatment periods, N=21

NC1(C(=O)N[C@@H](CCO)c2ccc(Cl)cc2)CCN(c2nc[nH]c3nccc2-3)CC1 [capivasertib]
3 (15.8) n (%): Blood creatinine increased, any grade [1] | Hyperglycemia, any grade [1] | Hypokalemia, any grade [1] | Hyponatremia, any grade [1] | Hypotension, any grade [1]
23.8%: patients requiring a capivasertib dose reduction due to AEs (N = 21)
17 (89.5) n (%): Any AE, any grade [1]
3 (14.3) n (%): Any AE, grade ≥ 3 [2] | Asthenia, any grade [3] | Blood creatinine increased, any grade [3] | Lymphocyte count decreased, any grade [3] | Rash (group term), grade ≥ 3 [3]
8 (38.1) n (%): Rash (group term), any grade [3]
33.3%: Fatigue, frequency of patients overall (all treatment periods, N = 21) | Nausea, frequency of patients overall (all treatment periods, N = 21)
7 (33.3) n (%): Fatigue, any grade [3] | Nausea, any grade [3]
76.2%: Diarrhea, frequency of patients overall (all treatment periods, N = 21)
1 (5.3) n (%): Abdominal pain, any grade [1] | Abdominal pain, grade ≥ 3 [1] | Asthenia, grade ≥ 3 [1] | Blood bilirubin increased, grade ≥ 3 [1] | COVID-19, any grade [1] | COVID-19, grade ≥ 3 [1] | Diarrhea, grade ≥ 3 [1] | Gamma-glutamyl transferase increased, any grade [1] | Gamma-glutamyl transferase increased, grade ≥ 3 [1] | Hypokalemia, grade ≥ 3 [1] | Hyponatremia, grade ≥ 3 [1] | Hypotension, grade ≥ 3 [1] | Large intestinal obstruction, any grade [1] | Large intestinal obstruction, grade ≥ 3 [1] | Sepsis, any grade [1] | Sepsis, grade ≥ 3 [1] | Ureteric obstruction, any grade [1] | Ureteric obstruction, grade ≥ 3 [1]
7 (36.8) n (%): Diarrhea, any grade [1]
2 (10.5) n (%): Asthenia, any grade [1] | Blood bilirubin increased, any grade [1] | Decreased appetite, grade ≥ 3 [1] | Fatigue, grade ≥ 3 [1] | Lymphocyte count decreased, any grade [1] | Rash (group term), any grade [1]
57.1%: patients who experienced grade 3 AEs (in total, N = 21)
five: serious AEs (SAEs) reported in the study (n = 1 period 2, n = 1 period 3, n = 3 part B, only one considered related to study treatment)
4 (19.0) n (%): Hyponatremia, any grade [3] | Hypotension, any grade [3]
Three: patients with AEs leading to permanent discontinuation of capivasertib (N = 21)
5 (23.8) n (%): Decreased appetite, any grade [3] | Hypokalemia, any grade [3]
2 (9.5) n (%): Anemia, any grade [2] | Nausea, any grade [2] | Abdominal pain, any grade [3] | Blood bilirubin increased, any grade [3] | COVID-19, any grade [3] | Decreased appetite, grade ≥ 3 [3] | Fatigue, grade ≥ 3 [3]
9 (47.4) n (%): Any AE, grade ≥ 3 [1]
6 (28.6) n (%): Diarrhea, any grade [2] | Anemia, any grade [3] | Hyperglycemia, any grade [3]
14 (66.7) n (%): Any AE, grade ≥ 3 [3]
21 (100) n (%): Any AE, any grade [3]
manageable safety profile: safety profile (administered with or without midazolam)
66.7%: patients requiring a capivasertib dose interruption due to AEs (N = 21) | patients who experienced grade ≥ 3 AEs (in total, N = 21)
10 (47.6) n (%): Any AE, any grade [2]
4 (21.1) n (%): Anemia, any grade [1] | Decreased appetite, any grade [1] | Fatigue, any grade [1] | Nausea, any grade [1]
four: deaths during the study (one in part A, three in part B, none deemed possibly related to study treatment)
0 n (%): Anemia, grade ≥ 3 [1] | Blood alkaline phosphatase increased, any grade [1] | Blood alkaline phosphatase increased, grade ≥ 3 [1] | Blood creatinine increased, grade ≥ 3 [1] | Hyperglycemia, grade ≥ 3 [1] | Hypoalbuminemia, any grade [1] | Hypoalbuminemia, grade ≥ 3 [1] | Lymphocyte count decreased, grade ≥ 3 [1] | Nausea, grade ≥ 3 [1] | Rash (group term), grade ≥ 3 [1] | Thrombocytopenia, any grade [1] | Thrombocytopenia, grade ≥ 3 [1] | Urticaria, any grade [1] | Urticaria, grade ≥ 3 [1] | Abdominal pain, grade ≥ 3 [2] | Asthenia, grade ≥ 3 [2] | Blood alkaline phosphatase increased, any grade [2] | Blood alkaline phosphatase increased, grade ≥ 3 [2] | Blood bilirubin increased, any grade [2] | Blood bilirubin increased, grade ≥ 3 [2] | Blood creatinine increased, any grade [2] | Blood creatinine increased, grade ≥ 3 [2] | COVID-19, any grade [2] | COVID-19, grade ≥ 3 [2] | Decreased appetite, any grade [2] | Decreased appetite, grade ≥ 3 [2] | Diarrhea, grade ≥ 3 [2] | Fatigue, any grade [2] | Fatigue, grade ≥ 3 [2] | Gamma-glutamyl transferase increased, any grade [2] | Gamma-glutamyl transferase increased, grade ≥ 3 [2] | Hyperglycemia, grade ≥ 3 [2] | Hypokalemia, grade ≥ 3 [2] | Hyponatremia, grade ≥ 3 [2] | Hypotension, any grade [2] | Hypotension, grade ≥ 3 [2] | Large intestinal obstruction, any grade [2] | Large intestinal obstruction, grade ≥ 3 [2] | Nausea, grade ≥ 3 [2] | Rash (group term), any grade [2] | Rash (group term), grade ≥ 3 [2] | Sepsis, any grade [2] | Sepsis, grade ≥ 3 [2] | Ureteric obstruction, any grade [2] | Ureteric obstruction, grade ≥ 3 [2] | Urticaria, any grade [2] | Urticaria, grade ≥ 3 [2] | Blood creatinine increased, grade ≥ 3 [3] | Nausea, grade ≥ 3 [3]
no reports of QT prolongation: QT prolongation (ECG, whole study)
4.8%: patients who experienced a grade 5 AE (sepsis) (part B, not considered related to capivasertib or midazolam) | patients who experienced a grade 4 AE (thrombocytopenia) (treatment period 2, not considered related to capivasertib or midazolam)
1 (4.8) n (%): Abdominal pain, any grade [2] | Anemia, grade ≥ 3 [2] | Asthenia, any grade [2] | Hyperglycemia, any grade [2] | Hypoalbuminemia, any grade [2] | Hypoalbuminemia, grade ≥ 3 [2] | Hypokalemia, any grade [2] | Hyponatremia, any grade [2] | Lymphocyte count decreased, any grade [2] | Lymphocyte count decreased, grade ≥ 3 [2] | Thrombocytopenia, any grade [2] | Thrombocytopenia, grade ≥ 3 [2] | Abdominal pain, grade ≥ 3 [3] | Anemia, grade ≥ 3 [3] | Asthenia, grade ≥ 3 [3] | Blood alkaline phosphatase increased, any grade [3] | Blood alkaline phosphatase increased, grade ≥ 3 [3] | Blood bilirubin increased, grade ≥ 3 [3] | COVID-19, grade ≥ 3 [3] | Diarrhea, grade ≥ 3 [3] | Gamma-glutamyl transferase increased, any grade [3] | Gamma-glutamyl transferase increased, grade ≥ 3 [3] | Hyperglycemia, grade ≥ 3 [3] | Hypoalbuminemia, any grade [3] | Hypoalbuminemia, grade ≥ 3 [3] | Hypokalemia, grade ≥ 3 [3] | Hyponatremia, grade ≥ 3 [3] | Hypotension, grade ≥ 3 [3] | Large intestinal obstruction, any grade [3] | Large intestinal obstruction, grade ≥ 3 [3] | Lymphocyte count decreased, grade ≥ 3 [3] | Sepsis, any grade [3] | Sepsis, grade ≥ 3 [3] | Thrombocytopenia, any grade [3] | Thrombocytopenia, grade ≥ 3 [3] | Ureteric obstruction, any grade [3] | Ureteric obstruction, grade ≥ 3 [3] | Urticaria, any grade [3] | Urticaria, grade ≥ 3 [3]
28.6%: Anemia, frequency of patients overall (all treatment periods, N = 21) | Hyperglycemia, frequency of patients overall (all treatment periods, N = 21)
16 (76.2) n (%): Diarrhea, any grade [3]
